According to patent publication US20200281873A1, “Adamantane or Bicyclic Monoterpenoid Derivatives for Use in the Treatment of Leishmaniasis” (Commissariat a l'Energie Atomique et aux Energies …, priority 2017, published 2020):
Where two headings read alike, the source gives them in different places.

What was measured:
[1] = system: Leishmania infantum axenic amastigotes; assay: Evaluation on Leishmania donovani infantum axenic amastigotes (SYBR Green I); type: cell-based
Procedure: Protocol for Evaluation on Leishmania donovani infantum Axenic Amastigotes
Amastigote forms of the parasite were suspended to yield 10^7 parasitic cells mL^−1. The maximum final compound concentration used was 100 μM. Triplicates were used for each concentration. Cultures were incubated at 37° C. for 72 h in the dark and under a 5% CO2 atmosphere, then the viability of the amastigotes was assessed using the SYBR® Green I (Invitrogen, France) incorporation method. Parasite growth was determined by using SYBR® Green I, a dye with marked fluorescence enhancement upon contact with parasite DNA. Parasites were lysed and quantified by Direct PCR-Cell Genotyping without DNA isolation protocol (Euromedex, France). 10 μL of lysed parasite solution from each well was added to 40 μL of PCR-Cell reagent containing the SYBR® green I in a qPCR plate of 96 wells, and the contents were mixed. Fluorescence was measured with Mastercycler® ep realplex (Eppendorf, France). Measured fluorescence was compared to that from the range obtained with different parasite densities. The antileishmanial activity was expressed as IC50 in μM (concentration of drug inhibiting 50% of the parasite growth, comparatively to the controls treated with the excipient only).

[2] = system: L. infantum intramacrophagic amastigotes; assay: L. donovani infantum/RAW 264.7 macrophage model (intramacrophagic amastigotes, SYBR Green I); type: cell-based, Leishmania donovani infantum
Procedure: Protocol for Evaluation on the L. donovani infantum/RAW 264.7 Macrophage Model (Intramacrophagic Amastigotes)
Mouse macrophage cells RAW 264.7 (ATCC) were seeded into a 96-well microplate and maintained in DMEM medium (Applied Biosystems, France) supplemented with 10% heat-inactivated fetal bovine serum in a 5% CO2 incubator at 37° C. for 24 h. Then, the medium was replaced with 100 μL fresh medium containing a suspension of 10^5 L. infantum amastigotes and the incubation time was 16 h. Then, extracellular parasites were eliminated from the medium and 100 μL fresh medium containing compound in various concentrations were added for a 48 h-incubation. Parasite growth was determined by using SYBR® Green I (Life technology, Fisher Scientific, France), a dye with marked fluorescence enhancement upon contact with DNA. The cell lysis suspension was diluted 1:1 in lysis buffer (10 mM NaCl, 1 mM Tris HCl pH8, 2.5 mM EDTA pH 8, 0.05% SDS, 0.01 mg/mL proteinase K and 10×SYBR Green I). Incorporation of SYBR Green I in DNA amplification was measured using the Master epRealplex cycler® (Eppendorf, France) according to the following program to increase the SYBR green incorporation: 90° C. for 1 min, decrease in temperature from 90° C. to 10° C. for 5 min with reading the fluorescence at 10° C. for 1 min and a new reading at 10° C. for 2 min. The EC50 as the concentration inhibiting the parasite growth by 50% was calculated by nonlinear regression using icestimator website 1.2 version: http://www.antimalarial-icestimator.net/MethodIntro.htm.

[3] = system: L. infantum intramacrophagic amastigotes; assay: as above; type: cell-based, Leishmania donovani infantum; conditions: Table I; ratio
[4] = system: L. donovani (MHOM/ET/67/HU3) amastigotes; assay: In vivo antileishmanial evaluation, Leishmania donovani/Balb/c mouse model (liver parasite load); conditions: for % reduction of parasite burden in the liver / LDU ± SD (parasites in the liver): Balb/c mice
Procedure: Compounds VP343, VP370 were evaluated in vivo for their antileishmanial properties by oral and intravenous route on the Leishmania donovani/Balb/c mouse model, comparatively to miltefosine, used as reference drug, according to a previously described protocol (Balaraman et al., 2015). Six- to eight-week-old Balb/c mice (Élevages Janvier, Le Genest Saint Isle, France) were infected intravenously on day 1 with 10^7 L. donovani (MHOM/ET/67/HU3) amastigotes derived from the spleen of hamsters and randomly sorted into four groups of 10 mice and one group of 12 mice as infected controls but not treated. The treatment administered orally or intravenously, started one week post-infection, on day 8, and continued for 5 consecutive days. At day 15, all groups of mice were autopsied and livers and spleens were weighed. Parasite load in the liver was determined by counting the number of amastigotes/500 liver cells in Giemsa-stained impression smears prepared from the liver and applying Stauber's formula. Three researchers counted the slides independently and the results are expressed as the mean values±SD. The parasite burden of treated groups and controls were compared using Student's t-test or the Kruskal-Wallis nonparametric analysis of variance test for comparing two groups. Significance was established for a P value<0.05.

[5] = Cytotoxicity on RAW 264.7 macrophages; type: cell-based, Mouse; conditions: mouse, RAW 264.7 macrophages; Table I
RAW 264.7 macrophages = assay: Cytotoxicity on RAW 264.7 macrophages; type: cell-based, Mouse; conditions: Table I
[6] = In vivo toxicity evaluation by oral route in mice (serum biochemical parameters); parameters: species or system Balb/C female mice; Serum urea: unit not given here
Procedure: Biochemical parameters relative to VP343 and VP370 toxicity in Balb/C female mice (18-20 g) after a single treatment by oral route at 100 mg/kg under a 0.1 mL volume (=5 mL/kg). Serum were collected one week after the treatment. Excipient: Methylcellulose 1%+Tween 0.1%.
Dosages were performed with a Cobas 800 (Roche/Hitachi) apparatus.

[7] = Leishmania infantum, Table II, 3 different experiments, SYBR Green I method, read-out: IC50 axenic
[8] = Leishmania infantum, Macrophage, Table II, 3 different experiments, SYBR Green I method, read-out: IC50 intramacrophagic
[9] = Leishmania infantum, Table I, 72 h incubation, read-out: Axenic amastigotes IC50
[10] = intravenous route, 10 mg/kg/day × 5
[11] = Leishmania infantum, RAW264.7, Table I, RAW 264.7 macrophages, 48 h incubation, read-out: Intramacrophagic amastigotes IC50
[12] = single oral treatment 100 mg/kg, serum one week after treatment

SMILES	IC50 [1, 7] [µM]	IC50 [2, 8] [nM]	other results
C[C@@H]1[C@@H](NCc2ccoc2)C[C@H]2C[C@@H]1C2(C)C [VP354]	4.1	420	–
C[C@@H]1[C@@H](NCc2c[nH]c3ccccc23)C[C@H]2C[C@@H]1C2(C)C [VP359]	> 100	250	–
COc1ccc(Br)cc1/C=N/C12CC3CC(CC(C3)C1)C2 [VP300A]	4.53	210	–
C[C@@H]1[C@@H](NCc2ccc(I)cc2)C[C@H]2C[C@@H]1C2(C)C [VP390]	21.6	270	–
C[C@@H]1[C@@H](NCc2cccc(Cl)c2)C[C@H]2C[C@@H]1C2(C)C [VP371]	30.5	190	–
C[C@@H]1[C@@H](NCc2cc(F)ccc2F)C[C@H]2C[C@@H]1C2(C)C [VP381]	58.8	170	–
CCCCCCCCCCCCCCCCOP(=O)([O-])OCC[N+](C)(C)C [Miltefosine, reference compound]	–	–	Selectivity IC50 (Axenic amastigotes)/IC50 (Intramacrophagic amastigotes) [3]: 1.4; IC50 [1, 9]: 1.2 ± 0.5 µM; % reduction of parasite burden in the liver [4, 10]: 65.9%; LDU ± SD (parasites in the liver) [4, 10]: 0.36 ± 0.08 ×10^8; % reduction of parasite burden in the liver ([4]; oral route, 10 mg/kg/day × 5): 84.6%; LDU ± SD (parasites in the liver) ([4]; oral route, 10 mg/kg/day × 5, autopsy day 15): 0.19 ± 0.09 ×10^9; IC50 [2, 11]: 850 ± 200 nM; CC50 [5]: 12.5 ± 1.3 µM
C[C@@H]1[C@@H](NCc2ccc3c(c2)Cc2ccccc2-3)C[C@H]2C[C@@H]1C2(C)C [VP397]	9.72	500	–
C[C@@H]1[C@@H](NCc2ncc[nH]2)C[C@H]2C[C@@H]1C2(C)C [VP358]	13	570	–
COc1ccc(OC)c(CN[C@H]2C[C@H]3C[C@@H]([C@@H]2C)C3(C)C)c1 [VP369]	15.5	110	–
COc1ccc(Br)cc1CNC12CC3CC(CC(C3)C1)C2 [ABMA]	> 100	7100	Selectivity IC50 (Axenic amastigotes)/IC50 (Intramacrophagic amastigotes) [3]: >14; IC50 [1, 9]: > 100 µM; IC50 [2, 11]: 7100 ± 1700 nM; CC50 [5]: 25.3 ± 2.4 µM
COc1ccc(Br)cc1CN[C@@H]1C[C@H]2CC[C@]1(C)C2(C)C [VP305]	< 0.5	60	–
C[C@@H]1[C@H](O)[C@@H](C)/C=C/C=C/C=C/C=C/C=C/C=C/C=C/[C@H](O[C@@H]2O[C@H](C)[C@@H](O)[C@H](N)[C@@H]2O)C[C@@H]2O[C@](O)(C[C@@H](O)C[C@@H](O)[C@H](O)CC[C@@H](O)C[C@@H](O)CC(=O)O[C@H]1C)C[C@H](O)[C@H]2C(=O)O [Amphotericin B, reference compound]	–	–	Selectivity IC50 (Axenic amastigotes)/IC50 (Intramacrophagic amastigotes) [3]: <1; IC50 ([1]; Table I, 72 h incubation, read-out: Axenic amastigotes IC50): 0.031 ± 0.002 µM; IC50 ([2]; Table I, RAW 264.7 macrophages, 48 h incubation, read-out: Intramacrophagic amastigotes IC50): 47 ± 5 nM; CC50 (RAW 264.7 macrophages): 4.5 ± 0.4 µM
COc1ccc(Br)cc1CN[C@@H]1C[C@@H]2C[C@H]([C@H]1C)C2(C)C [VP330]	4.86	250	–
Cc1ccc(-c2ccc(CN[C@H]3C[C@H]4C[C@@H]([C@@H]3C)C4(C)C)cc2)cc1 [VP396]	5.56	210	–
C[C@@H]1[C@@H](NCc2ccc(-n3ccnc3)cc2)C[C@H]2C[C@@H]1C2(C)C [VP393]	8.9	290	–
COc1cccc(OC)c1CN[C@H]1C[C@H]2C[C@@H]([C@@H]1C)C2(C)C [VP370]	36.3	40	Serum AST ± SD [6, 12]: 330 ± 68 U/L; Serum AST ± SD (second AST column) [6, 12]: 197 ± 41 U/L; Serum creatinin [6, 12]: <18 µM; Serum urea [6, 12]: 7.9 ± 1.5; Toxicity after single oral treatment (in words) ([6]; single treatment by oral route at 100 mg/kg): did not show toxicity; % reduction of parasite burden in the liver ([4]; oral route, 20 mg/kg/day × 5): 62.7%; LDU ± SD (parasites in the liver) ([4]; oral route, 20 mg/kg/day × 5, autopsy day 15): 0.46 ± 0.12 ×10^9; Activity in vivo by oral route (in words) ([4]; VP343 and VP370 at 20 mg/kg/day×5, VP343 also at 10 mg/kg/day×5, Tukey's multiple comparisons test): significantly active
C[C@@H]1[C@@H](NCc2cccc(Br)c2)C[C@H]2C[C@@H]1C2(C)C [VP361]	3.7	390	–
COc1ccccc1CN[C@H]1C[C@H]2C[C@@H]([C@@H]1C)C2(C)C [VP363]	9.99	190	–
Cc1ccccc1CN[C@H]1C[C@H]2C[C@@H]([C@@H]1C)C2(C)C [VP391]	7.55	210	–
